Each compound was assayed against Carbonic anhydrase 2 (Homo sapiens, UniProt P00918) (assay: Fluorescence-Based CA II Binding Assay). Settings: pH 7; 25 °C.
Experimental: The assay was performed according to a previously reported protocol.[Banerjee et al., Biochemistry, 44:3673-3682] DNSA stock solution was prepared at 1 mm in DMSO/water (1:1). CA II (1 mm) was added to the test probe (over a 0.1-100 mm concentration range) in HEPES buffer [HEPES (25 mm) with acetonitrile (10 %), pH 7.0] and mixed well. DNSA (0.1 mm) was added, and the resulting solution was incubated at RT for 10 min and then transferred into a black-wall 96-well plate (final volume […]). The fluorescence was measured with a Spectra Max 250 plate reader (Molecular Devices, Sunnyvale, CA, USA) at an excitation of 285 nm and emission of 465 nm at 25 °C.
`C#CCOCCOCCOCCOCCNC(=O)c1ccc(S(N)(=O)=O)cc1` [N-(3,6,9,12-Tetraoxapentadec-14-ynyl)-4-sulfamoylbenzamide (13)] gave an IC50 of 0.288 µM.
`C#CCOCCOCCOCCOCCOCCC(=O)Nc1ccc(C(=O)c2ccc(NC(=O)CCNC(=O)c3ccccc3)cc2)cc1` [N-(4-{4-[3-(Phenylformamido)propanamido]benzoyl}phenyl)-4,7,10,13,16-pentaoxanonadec-18-ynamide (12)] showed an IC50 greater than 5000 µM.
`C#CCOCCOCCOCCOCCOCCC(=O)Nc1ccc(C(=O)c2ccc(NC(=O)CCNC(=O)c3ccc(S(N)(=O)=O)cc3)cc2)cc1` [N-[4-(4-{3-[(4-Sulfamoylphenyl)formamido]propanamido}benzoyl)phenyl]-4,7,10,13,16-pentaoxanonadec-18-ynamide (1)] showed an IC50 of 0.216 µM.
Compound `C#CCOCCOCCOCCOCCOCCC(=O)N[C@@H](Cc1cn(-c2ccc(C(=O)c3ccccc3)cc2)nn1)C(=O)NCCc1ccc(S(N)(=O)=O)cc1` [N-[(1S)-2-[1-(4-Benzoylphenyl)-1,2,3-triazol-4-yl]-1-{[2-(4-sulfamoylphenyl)ethyl]carbamoyl}ethyl]-4,7,10,13,16-pentaoxanonadec-18-ynamide (7)] has an IC50 of 0.604 µM.
In the case of `CCCOCCOCCOC#COCCOCCC(=O)N[C@@H](Cc1cn(-c2ccc(C(=O)c3ccccc3)cc2)nn1)C(=O)Nc1ccccc1` [N-[(1S)-2-[1-(4-Benzoylphenyl)-1H-1,2,3-triazol-4-yl]-1-(phenylcarbamoyl)ethyl]-4,7,10,13,16-pentaoxanonadec-8-ynamide (15)], the IC50 is reported as greater than 5000 µM.
For `C#CCOCCOCCOCCOCCOCCC(=O)N[C@@H](Cc1cn(-c2ccc(C(=O)c3ccccc3)cc2)nn1)C(=O)Nc1ccc(S(N)(=O)=O)cc1` [N-[(1S)-2-[1-(4-Benzoylphenyl)-1H-1,2,3-triazol-4-yl]-1-[(4-sulfamoylphenyl)carbamoyl]ethyl]-4,7,10,13,16-pentaoxanonadec-18-ynamide (9)], the IC50 was 1.55 µM.
Work on `C#CCOCCOCCOCCOCCOCCC(=O)N[C@@H](Cc1cn(-c2ccc(C(=O)c3ccccc3)cc2)nn1)C(=O)NCc1ccc(S(N)(=O)=O)cc1` [N-[(1S)-2-[1-(4-Benzoylphenyl)-1H-1,2,3-triazol-4-yl]-1-{[(4-sulfamoylphenyl)methyl]carbamoyl}ethyl]-4,7,10,13,16-pentaoxanonadec-18-ynamide (8)] yielded an IC50 of 3.1 µM.
For `C#CCOCCOCCOCCOCCOCCC(=O)Nc1ccc(C(=O)c2ccc(NC(=O)CCCC(=O)Nc3cccc(S(N)(=O)=O)c3)cc2)cc1` [N-{4-[4-(4,7,10,13,16-Pentaoxanonadec-18-ynamido)benzoyl]-phenyl}-N’-(3-sulfamoylphenyl)pentanediamide (5)], the IC50 was 0.914 µM.
In the case of `C#CCOCCOCCOCCOCCOCCC(=O)Nc1ccc(C(=O)c2ccc(NC(=O)CCCC(=O)Nc3ccc(S(N)(=O)=O)cc3)cc2)cc1` [N-{4-[4-(4,7,10,13,16-Pentaoxanonadec-18-ynamido)benzoyl]-phenyl}-N’-(4-sulfamoylphenyl)pentanediamide (4)], the IC50 is reported as 0.36 µM.
In the case of `C#CCOCCOCCOCCOCCOCCC(=O)Nc1ccc(C(=O)c2ccc(NC(=O)CCCC(=O)NCCc3ccc(S(N)(=O)=O)cc3)cc2)cc1` [N-{4-[4-(4,7,10,13,16-Pentaoxanonadec-18-ynamido)benzoyl]-phenyl}-N’-[2-(4-sulfamoylphenyl)ethyl]pentanediamide (2)], the IC50 is reported as 0.502 µM.
`C#CCOCCOCCOCCOCCOCCC(=O)Nc1ccc(C(=O)c2ccc(NC(=O)CCCC(=O)NCc3ccc(S(N)(=O)=O)cc3)cc2)cc1` [N-{4-[4-(4,7,10,13,16-Pentaoxanonadec-18-ynamido)benzoyl]-phenyl}-N’-[(4-sulfamoylphenyl)methyl]pentanediamide (3)] showed an IC50 of 1.22 µM.
Work on `C#CCOCCOCCOCCOCCOCCC(=O)Nc1ccc(C(=O)c2ccc(NC(=O)c3ccc(S(N)(=O)=O)cc3)cc2)cc1` [N-{4-[4-(4-Sulfamoylbenzamido)benzoyl]phenyl}-4,7,10,13,16-pentaoxanonadec-18-ynamide (6)] yielded an IC50 of 0.8 µM.
In the case of `C#CCOCCOCCOCCOCCOCCC(=O)N[C@@H](Cc1cn(-c2ccc(C(=O)c3ccccc3)cc2)nn1)C(=O)Nc1cccc(S(N)(=O)=O)c1` [N-{(1S)-2-[1-(4-Benzoylphenyl)-1H-1,2,3-triazol-4-yl]-1-[(3-sulfamoylphenyl)carbamoyl]ethyl}-4,7,10,13,16-pentaoxanonadec-18-ynamide (10)], the IC50 is reported as 2.03 µM.
In the case of `C#CCOCCOCCOCCOCCOCCC(=O)N[C@@H](Cc1cn(-c2ccc(C(=O)c3ccccc3)cc2)nn1)C(=O)Nc1nnc(S(N)(=O)=O)s1` [N-{(1S)-2-[1-(4-Benzoylphenyl)-1H-1,2,3-triazol-4-yl]-1-[(5-sulfamoyl-1,3,4-thiadiazol-2-yl)carbamoyl]ethyl}-4,7,10,13,16-pentaoxanonadec-18-ynamide (11)], the IC50 is reported as 0.139 µM.

Source: BindingDB's records for doi:10.1002/cbic.201600598 (Griffith University, 2017)
